In publication PMC10215199 (Antioxidants, 2023):
Where a name gives a salt, the structure may show the parent alone.

Experiments:
recombinant human MAO-B = biological target: T1, recombinant human MAO-B (Homo sapiens, UniProt P27338); test: biochemical; settings: for inhibition at 10 µM: single dose concentration of 10 µM; for inhibition at 10 µM / IC50: ±sem; for IC50: five doses
T1 construct: purchased Sigma Aldrich
T1 sequence (P27338 1-520): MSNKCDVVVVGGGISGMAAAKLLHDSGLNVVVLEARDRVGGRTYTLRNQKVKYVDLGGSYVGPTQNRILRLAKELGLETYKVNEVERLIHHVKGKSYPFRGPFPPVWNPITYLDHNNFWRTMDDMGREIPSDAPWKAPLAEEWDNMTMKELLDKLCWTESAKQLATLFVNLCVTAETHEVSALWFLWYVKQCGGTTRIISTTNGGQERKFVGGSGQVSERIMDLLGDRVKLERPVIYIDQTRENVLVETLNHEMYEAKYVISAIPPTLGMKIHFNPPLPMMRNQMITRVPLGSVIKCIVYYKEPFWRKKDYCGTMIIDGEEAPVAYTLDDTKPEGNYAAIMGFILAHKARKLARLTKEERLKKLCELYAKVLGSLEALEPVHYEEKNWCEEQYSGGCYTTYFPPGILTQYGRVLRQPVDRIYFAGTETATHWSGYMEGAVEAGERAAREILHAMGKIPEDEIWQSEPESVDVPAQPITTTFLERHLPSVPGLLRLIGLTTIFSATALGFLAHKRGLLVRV

recombinant human MAO-A = biological target: T2, recombinant human MAO-A (Homo sapiens, UniProt P21397); test: Monoamine oxidase-A inhibition assay (Amplex red fluorescence); type: biochemical; settings: ±sem; for inhibition at 1 µM: single dose concentration of 1 µM, NI = no measured inhibition, read-out: % Inhibition MAO-A; for inhibition at 100 µM / MAO-A % Inhibition: single dose concentration of 100 µM; for inhibition at 100 µM: read-out: MAO-A % Inhibition; for IC50: read-out: MAO-A IC50; for MAO-A % Inhibition: 100 µM
T2 sequence (P21397 1-527): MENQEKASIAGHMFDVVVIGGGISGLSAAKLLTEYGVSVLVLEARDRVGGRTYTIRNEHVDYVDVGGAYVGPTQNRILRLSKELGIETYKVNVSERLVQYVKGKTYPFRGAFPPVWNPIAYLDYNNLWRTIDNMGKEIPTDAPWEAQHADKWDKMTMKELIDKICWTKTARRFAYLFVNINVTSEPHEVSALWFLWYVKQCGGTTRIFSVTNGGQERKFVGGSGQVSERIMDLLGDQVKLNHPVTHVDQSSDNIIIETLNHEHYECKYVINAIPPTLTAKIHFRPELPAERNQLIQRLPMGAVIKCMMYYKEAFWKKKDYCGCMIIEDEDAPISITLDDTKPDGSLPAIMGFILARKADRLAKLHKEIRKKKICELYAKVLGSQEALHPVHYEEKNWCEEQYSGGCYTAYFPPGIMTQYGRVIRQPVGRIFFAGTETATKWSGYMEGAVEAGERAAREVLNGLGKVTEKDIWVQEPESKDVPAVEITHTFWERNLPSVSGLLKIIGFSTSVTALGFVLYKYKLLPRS
Procedure: Two isoforms of MAOs, namely MAO-A and MAO-B, are expressed in CNS, showing different substrate specificity. Consequently, different pharmacological effects can be elicited depending on the inhibited MAO isoform. Therefore, the prepared O^6-aminoalkyl-hispidol analogs were evaluated against both recombinant human MAO-A and MAO-B isoforms following the well-established spectrophotometric method.
2. Biological evaluations
2.1. In vitro assay of human monoamine oxidases inhibition
The MAO activity was quantified by measuring fluorescence intensity evoked by Amplex red reaction in which Amplex red reacts with hydrogen peroxide from the MAO reaction to produce highly fluorescent resorufin. The test compound in DMSO (final concentration: 1 nM – 10 μM or 10 nM – 100 μM ) and hMAO enzyme (Sigma Aldrich, St. Louis, MO, USA) in 50 mM sodium phosphate buffer (pH 7.4, final protein amount: ~1.25 μg of MAO-A/well and 2.5 μg of MAO-B/well) were loaded on 96-well black plate and incubated for 15 min at 37 °C. Then working solution of 200 μM Amplex Red (Cayman, Ann Arbor, MI, USA), 1 U/mL horseradish peroxidase (Sigma-Aldrich) and 1 mM substrate (p-tyramine for MAO-A, benzylamine for MAO-B, Sigma-Aldrich) in 50 mM sodium phosphate buffer (pH 7.4) was added and incubated for 20 min at 37 °C in the dark. The fluorescence was measured using a microplate reader (SpectraMax®i3, Molecular Device, San Jose, CA, USA) with an excitation at 545 nm and an emission at 590 nm. […]
(§1) of compounds were determined as the mean ± S.E.M. in triplicate from the dose-response inhibition curves using SigmaPlot® 13.0.

[1] = biological target: T3, acetylcholinesterase (AChE) (Mus musculus, UniProt P21836); test: Acetylcholinesterase inhibition assay (Ellman, mouse whole brain homogenate); type: biochemical; settings: ±SD
T3 construct: The supernatant obtained was used as a source of enzyme for; from tissue; host or cells: whole brain of male ICR mice, supernatant of the homogenate
T3 sequence (P21836 32-614): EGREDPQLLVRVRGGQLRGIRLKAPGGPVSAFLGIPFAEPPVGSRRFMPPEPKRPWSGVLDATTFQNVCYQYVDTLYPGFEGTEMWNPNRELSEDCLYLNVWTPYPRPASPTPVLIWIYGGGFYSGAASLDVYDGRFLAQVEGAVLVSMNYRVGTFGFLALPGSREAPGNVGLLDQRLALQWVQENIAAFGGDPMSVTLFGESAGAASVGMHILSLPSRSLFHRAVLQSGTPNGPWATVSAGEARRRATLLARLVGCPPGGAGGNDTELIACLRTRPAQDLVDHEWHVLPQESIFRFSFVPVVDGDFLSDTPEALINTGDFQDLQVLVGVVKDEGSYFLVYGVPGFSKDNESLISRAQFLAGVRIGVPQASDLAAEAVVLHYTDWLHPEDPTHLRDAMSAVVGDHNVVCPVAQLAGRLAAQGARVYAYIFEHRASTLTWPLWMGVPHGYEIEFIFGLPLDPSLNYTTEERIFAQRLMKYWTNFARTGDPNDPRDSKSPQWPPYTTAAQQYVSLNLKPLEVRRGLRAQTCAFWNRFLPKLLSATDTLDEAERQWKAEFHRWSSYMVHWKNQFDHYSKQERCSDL
Procedure: as §1
2.2. In vitro acetylcholinesterase inhibition assay
(Eyela, Japan) containing 50 volumes of phosphate buffer (pH 8.0, 0.1 M), and then centrifuged at 14,000 rpm for 20 min at 4 °C. The supernatant obtained was used as a source of enzyme for the assay. Each drug was initially dissolved in dimethyl sulfoxide (DMSO) and diluted to various concentrations immediately before use. An aliquot of diluted drug solution was then mixed wit h 640 μL of phosphate buffer (0.1 M, pH 8.0), 25 μL of buffered Ellman’s reagent (10 mM 5,5′- dithio-bis(2-nitrobenzoic acid) and 15 mM sodium bicarbonate), and the enzyme source (100 μL) and pre-incubated at room temperature for 10 min. Then 5 μL of acetylthiocholine iodide solution (75 mM) was added to this mixture and mixed. Absorbance was measured at 410 nm after 10 min for the reaction adding 5 μL of acetylthiocholine iodide solution (75 mM) and to the reaction mixtures (OPTIZEN 2120UV, Mecasys Co. Ltd, Korea).

Compound	inhibition at 10 µM (recombinant human MAO-B) [%]	inhibition at 1 µM (recombinant human MAO-A) [%]	further results
COc1cccc(/C=C2\Oc3cc(OCCCN4CCCCC4)ccc3C2=O)c1 [Compound 3ah]	18.1 ± 1.83	< 0	–
COc1ccc(OC)c(/C=C2\Oc3cc(OCCN4CCCC4)ccc3C2=O)c1 [Compound 3ax]	65.05 ± 0.43	< 0	IC50 (recombinant human MAO-B): 3.16 ± 0.036 µM; inhibition at 100 µM (recombinant human MAO-A): ~28%; IC50 (recombinant human MAO-A): > 100 µM
COc1ccc(OC)c(/C=C2\Oc3cc(OCCCN4CCCC4)ccc3C2=O)c1 [Compound 3ba]	20.3 ± 0.49	< 0	–
COc1ccc(/C=C2\Oc3cc(OCCN4CCCC4)ccc3C2=O)c(OC)c1 [Compound 3aw]	41.6 ± 1.03	12.7 ± 0.54	–
COc1ccc(/C=C2\Oc3cc(OCCCN4CCCC4)ccc3C2=O)cc1 [Compound 3ak]	45.64 ± 0.08	9.83 ± 0.64	–
COc1ccc(/C=C2\Oc3cc(OCCCCCN4CCCCC4)ccc3C2=O)cc1OC [Compound 3as, (Z)-2-(3,4-Dimethoxybenzylidene)-6-(5-(piperidin-1-yl)pentoxy)benzofuran-3(2H)-one hydrochloride]	4.76 ± 1.91	< 0	–
COc1cccc(/C=C2\Oc3cc(OCCN4CCCC4)ccc3C2=O)c1 [Compound 3af]	39.1 ± 0.96	< 0	–
CCN(CC)CCOc1ccc2c(c1)O/C(=C\c1cccc(OC)c1)C2=O [Compound 3ad]	46.09 ± 0.11	< 0	–
COc1cccc(/C=C2\Oc3cc(OCCCN4CCCC4)ccc3C2=O)c1OC [Compound 3ay]	4.37 ± 0.9	< 0	–
COc1ccc(/C=C2\Oc3cc(OCCN4CCCC4)ccc3C2=O)c(OC)c1OC [Compound 3bb]	23.9 ± 0.81	< 0	–
COc1ccccc1/C=C1\Oc2cc(OCCN3CCCC3)ccc2C1=O [Compound 3ab]	43 ± 0.55	< 0	–
COc1ccc(/C=C2\Oc3cc(OCCCN4CCCC4)ccc3C2=O)cc1OC [Compound 3ao]	39.2 ± 0.58	< 0	–
COc1ccc(/C=C2\Oc3cc(OCCCCN4CCCC4)ccc3C2=O)cc1 [Compound 3al]	49.8 ± 0.02	< 0	MAO-B Selectivity Index (recombinant human MAO-B; calculated from MAO-A and MAO-B IC50 values): >12; IC50 (recombinant human MAO-B): 8.65 ± 0.196 µM; IC50 [1]: 1.42 ± 0.09 µM; MAO-A % Inhibition (recombinant human MAO-A): 14.89 ± 3.46%; inhibition at 100 µM (recombinant human MAO-A): ~15%; IC50 (recombinant human MAO-A): > 100 µM
COc1ccccc1/C=C1\Oc2cc(OCCCN3CCCC3)ccc2C1=O [Compound 3ac]	32.27 ± 0.23	1.31 ± 0.82	–
COc1ccc(/C=C2\Oc3cc(OCCN4CCCCC4)ccc3C2=O)cc1OC [Compound 3ap]	50.81 ± 0.44	< 0	IC50 (recombinant human MAO-B): 10.18 ± 0.099 µM; MAO-A % Inhibition (recombinant human MAO-A): 22.52 ± 0.04%; inhibition at 100 µM (recombinant human MAO-A): ~23%; IC50 (recombinant human MAO-A): > 100 µM
COc1cccc(/C=C2\Oc3cc(OCCCN4CCCC4)ccc3C2=O)c1 [Compound 3ag]	16.99 ± 0.11	12.2 ± 1.05	–
COc1ccc(/C=C2\Oc3cc(OCCCN4CCCCC4)ccc3C2=O)cc1OC [Compound 3aq]	4.51 ± 1.3	< 0	–
COc1cc(/C=C2\Oc3cc(OCCN4CCCCC4)ccc3C2=O)cc(OC)c1OC [Compound 3bd]	27.9 ± 0.36	< 0	–
COc1ccc(/C=C2\Oc3cc(OCCN4CCCC4)ccc3C2=O)cc1OC [Compound 3an]	48.1 ± 1.46	< 0	–
COc1cc(/C=C2\Oc3cc(OCCCN4CCCC4)ccc3C2=O)cc(OC)c1 [Compound 3au]	21.2 ± 0.3	< 0	–
CCN(CC)CCCOc1ccc2c(c1)O/C(=C\c1cccc(OC)c1)C2=O [Compound 3ae]	18.8 ± 0.45	< 0	–
COc1cc(/C=C2\Oc3cc(OCCN4CCCC4)ccc3C2=O)cc(OC)c1 [Compound 3at]	36.8 ± 0.44	< 0	–
COc1cccc(/C=C2\Oc3cc(OCCN4CCOCC4)ccc3C2=O)c1 [Compound 3ai]	27.9 ± 0.37	4.1 ± 0.48	–
COc1cccc(/C=C2\Oc3cc(OCCN4CCCC4)ccc3C2=O)c1OC [Compound 3av]	2.61 ± 1.78	12.6 ± 0.32	–
COc1ccc(/C=C2\Oc3cc(OCCCCN4CCCCC4)ccc3C2=O)cc1OC [Compound 3ar]	3.89 ± 1.63	< 0	–
COc1ccc(/C=C2\Oc3cc(OCCN4CCCC4)ccc3C2=O)cc1 [Compound 3aj]	39.26 ± 0.03	3.26 ± 0.75	–
COc1ccc(/C=C2\Oc3cc(OCCCN4CCCC4)ccc3C2=O)c(OC)c1 [Compound 3az]	35.87 ± 0.17	< 0	–
COc1ccc(/C=C2\Oc3cc(OCCN4CCCCC4)ccc3C2=O)cc1 [Compound 3am]	20.6 ± 0.79	0.92 ± 0.83	–
